According to patent publication US20230382924A1, “MODULATORS OF CYSTIC FIBROSIS TRANSMEMBRANE CONDUCTANCE REGULATOR” (VERTEX PHARMACEUTICALS INCORPORATED, priority 2020, published 2023):
Where two headings read alike, the source gives them in different places.

Molecular target: CFTR (Homo sapiens, UniProt P13569)
Experiment: Membrane Potential Dye, Enteroid Assay A
Type: cell-based
Details: for EC50: read-out: Ent. A EC50
Experimental: Base medium (ADF+++) consisted of Advanced DMEM/Ham's F12, 2 mM Glutamax, 10 mM HEPES, […] penicillin/streptomycin.
Bath 1 Buffer consisted of 1 mM MgCl2, 160 mM NaCl, 4.5 mM KCl, 10 mM HEPES, 10 mM Glucose, 2 mM CaCl2).
Chloride Free Buffer consisted of 1 mM Magnesium Gluconate, 2 mM Calcium Gluconate, 4.5 mM Potassium Gluconate, 160 mM Sodium Gluconate, 10 mM HEPES, 10 mM Glucose.
Bath 1 Dye Solution consisted of Bath 1 Buffer, 0.04% Pluronic F127, 20 μM Methyl Oxonol, 30 μM CaCCinh-A01, 30 μM Chicago Sky Blue.
Chloride Free Dye Solution consisted of Chloride Free Buffer, 0.04% Pluronic F127, 20 μM Methyl Oxonol, 30 μM CaCCinh-A01, 30 μM Chicago Sky Blue.
3. Enteroid Cell Harvesting and Seeding
Cells were recovered in cell recovery solution, collected by centrifugation at 650 rpm for 5 min at 4° C., resuspended in TryPLE and incubated for 5 min at 37° C. Cells were then collected by centrifugation at 650 rpm for 5 min at 4° C. and resuspended in IEMM containing 10 μM ROCK inhibitor (RI).
4. Membrane Potential Dye, Enteroid Assay A
Briefly, cells were washed 5 times in Bath 1 Buffer. Bath 1 Dye Solution was added, and the cells were incubated for 25 min at room temperature. Following dye incubation, cells were washed 3 times in Chloride Free Dye Solution. Chloride transport was initiated by addition of Chloride Free Dye Stimulation Solution and the fluorescence signal was read for 15 min. […] Chloride transport was then expressed as a percentage of the chloride transport following treatment with 3 μM N-[(6-amino-2-pyridyl)sulfonyl]-6-(3-fluoro-5-isobutoxy-phenyl)-2-[(4S)-2,2,4-trimethylpyrrolidin-1-yl]pyridine-3-carboxamide, 3 μM (R)-1-(2,2-difluorobenzo[d][1,3]dioxol-5-yl)-N-(1-(2,3-dihydroxypropyl)-6-fluoro-2-(1-hydroxy-2-methylpropan-2-yl)-1H-indol-5-yl)cyclopropanecarboxamide and 300 nM acute N-[2,4-bis(1,1-dimethylethyl)-5-hydroxyphenyl]-1,4-dihydro-4-oxoquinoline-3-carboxamide triple combination control (% Activity).

Chain of CFTR (P13569 with tags, fused parts or gaps DEL508-508): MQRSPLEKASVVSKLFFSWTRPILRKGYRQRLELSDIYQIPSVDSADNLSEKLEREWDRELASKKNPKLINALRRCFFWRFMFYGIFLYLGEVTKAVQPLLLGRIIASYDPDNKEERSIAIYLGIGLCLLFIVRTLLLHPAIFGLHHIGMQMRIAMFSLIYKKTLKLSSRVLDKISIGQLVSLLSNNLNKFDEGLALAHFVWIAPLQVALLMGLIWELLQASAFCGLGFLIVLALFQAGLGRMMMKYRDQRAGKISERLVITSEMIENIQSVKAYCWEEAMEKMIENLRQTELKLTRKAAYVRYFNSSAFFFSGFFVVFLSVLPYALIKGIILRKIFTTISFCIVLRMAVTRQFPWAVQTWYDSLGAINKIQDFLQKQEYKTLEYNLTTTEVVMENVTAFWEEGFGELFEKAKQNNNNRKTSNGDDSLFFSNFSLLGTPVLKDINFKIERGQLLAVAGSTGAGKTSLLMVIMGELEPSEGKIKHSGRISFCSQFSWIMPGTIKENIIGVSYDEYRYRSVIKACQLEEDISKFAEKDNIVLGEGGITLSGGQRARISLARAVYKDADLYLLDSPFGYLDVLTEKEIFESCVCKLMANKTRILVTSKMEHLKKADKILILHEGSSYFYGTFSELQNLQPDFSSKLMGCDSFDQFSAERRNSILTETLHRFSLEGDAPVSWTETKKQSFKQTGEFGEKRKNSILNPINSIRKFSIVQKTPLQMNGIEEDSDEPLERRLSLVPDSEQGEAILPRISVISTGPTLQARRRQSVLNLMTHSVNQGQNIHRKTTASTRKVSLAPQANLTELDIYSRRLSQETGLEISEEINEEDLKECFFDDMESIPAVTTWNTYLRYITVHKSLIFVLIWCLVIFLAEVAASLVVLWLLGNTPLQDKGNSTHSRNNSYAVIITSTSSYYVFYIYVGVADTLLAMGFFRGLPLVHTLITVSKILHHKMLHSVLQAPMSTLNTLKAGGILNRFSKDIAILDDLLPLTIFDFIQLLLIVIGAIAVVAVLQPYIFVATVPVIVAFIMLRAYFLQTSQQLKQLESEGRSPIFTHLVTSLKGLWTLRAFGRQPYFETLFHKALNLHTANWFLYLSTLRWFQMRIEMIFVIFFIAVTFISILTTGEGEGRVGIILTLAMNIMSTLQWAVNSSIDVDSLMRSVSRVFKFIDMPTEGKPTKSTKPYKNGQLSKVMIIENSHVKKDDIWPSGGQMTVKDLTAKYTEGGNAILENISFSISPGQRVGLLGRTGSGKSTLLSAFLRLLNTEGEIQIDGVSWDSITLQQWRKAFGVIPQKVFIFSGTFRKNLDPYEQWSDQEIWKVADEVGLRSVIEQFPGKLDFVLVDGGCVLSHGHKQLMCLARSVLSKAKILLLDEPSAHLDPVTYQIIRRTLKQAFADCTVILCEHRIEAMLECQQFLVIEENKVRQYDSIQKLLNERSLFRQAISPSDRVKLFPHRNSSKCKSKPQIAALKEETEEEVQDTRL

| Structure (SMILES) | Ent. A Max Activity (Table 9) | EC50 (Table 9) [nM] | Ent. A Max Activity (Table 8) | also measured |
| --- | --- | --- | --- | --- |
| Cc1cccc(C)c1-c1cc2nc(n1)NS(=O)(=O)c1cccc(c1)C(=O)N[C@@H](CC(F)(F)F)CO2 (single isomer, unassigned) [Compound 94, 6-(2,6-dimethylphenyl)-11-(2,2,2-trifluoroethyl)-9-oxa-2λ^6-thia-3,5,12,19-tetraazatricyclo[12.3.1.14,8]nonadeca-1(17),4(19),5,7,14(18),15-hexaene-2,2,13-trione] | +++ (+++ is >60%) | 1000 to 3000 |  |  |
| Cc1cccc(C)c1-c1cc2nc(n1)NS(=O)(=O)c1cccc(c1)C(=O)N[C@@H](CC13CC4CC(CC(C4)C1)C3)CO2 (single isomer, unassigned) [Compound 111, 11-(1-adamantylmethyl)-6-(2,6-dimethylphenyl)-2,2-dioxo-9-oxa-2λ^6-thia-3,5,12,19-tetrazatricyclo[12.3.1.14,8]nonadeca-1(18),4(19),5,7,14,16-hexaen-13-one] | ++ (++ is 30-60%) | < 1000 |  |  |
| Cc1cccc(C)c1-c1cc2nc(n1)NS(=O)(=O)c1cccc(c1)C(=O)NC[C@H](c1ccc(CCC(C)(C)C)cc1)O2 (stereo in doubt) [Compound 148] | ++ (++ is 30-60%) | < 1000 |  |  |
| Cc1cc(C(C)(C)C)ccc1[C@H]1CNC(=O)c2cccc(c2)S(=O)(=O)Nc2nc(cc(-c3c(C)cccc3C)n2)O1 (stereo in doubt) [Compound 156] |  |  | + (+ is <30%) |  |
| Cc1cccc(C)c1-c1cc2nc(n1)NS(=O)(=O)[C@H]1CCCN(C1)C(=O)N[C@H](CC1CCCCC1)CO2 (stereo in doubt) [Compound 159] |  |  | + (+ is <30%) |  |
| Cc1cccc(C)c1-c1cc2nc(n1)NS(=O)(=O)c1cccc(c1)C(=O)N[C@@H](C(CC(C)C)c1ccccc1)CO2 (stereo in doubt) [Compound 180] | ++ (++ is 30-60%) | < 1000 |  |  |
| Cc1cccc(C)c1-c1cc2nc(n1)NS(=O)(=O)c1cccc(c1)C(=O)N[C@@H](C(CC(C)C)c1ccccc1)CO2 (stereo in doubt) [Compound 182] | ++ (++ is 30-60%) | < 1000 |  |  |
| Cc1cccc(C)c1-c1cc2nc(n1)NS(=O)(=O)c1cccc(c1)C(=O)N[C@@H](CCC(F)(F)F)CO2 (stereo in doubt) [Compound 189] |  |  | + (+ is <30%) | EC50 (Table 8): 1000 to 3000 nM |
| Cc1cccc(C)c1-c1cc2nc(n1)NS(=O)(=O)c1cccc(c1)C(=O)N[C@H](CCC(F)(F)F)CO2 (stereo in doubt) [Compound 190] |  |  | +++ (+++ is >60%) | EC50 (Table 8): < 1000 nM |
| Cc1cccc(C)c1-c1cc2nc(n1)NS(=O)(=O)c1cccc(c1)C(=O)N[C@H](CC1CCOCC1)CO2 (stereo in doubt) [Compound 191] |  |  |  | Ent. A Max Activity (Enteroid Assay A): +++ (+++ is >600%); EC50 (Enteroid Assay A): 3000 to 30000 nM |
| Cc1cccc(C)c1-c1cc2nc(n1)NS(=O)(=O)c1cccc(c1)CNC1C[C@@H](CN(C(=O)OCc3ccccc3)C1)O2 (stereo in doubt) [Compound 192] |  |  |  | Ent. A Max Activity (Enteroid Assay A): ++ (++ is 30-60%); EC50 (Enteroid Assay A): 1000 to 3000 nM |
| Cc1cccc(C)c1-c1cc2nc(n1)NS(=O)(=O)c1cccc(c1)CNC1C[C@@H](CN(C(=O)OCc3ccccc3)C1)O2 (stereo in doubt) [Compound 193] |  |  |  | Ent. A Max Activity (Enteroid Assay A): ++ (++ is 30-60%); EC50 (Enteroid Assay A): 1000 to 3000 nM |
| Cc1cccc(C)c1-c1cc2nc(n1)NS(=O)(=O)c1cccc(c1)C(=O)N[C@@H](CC1CCC1)[C@@H](c1ccc(C(C)(C)C)cc1)O2 (stereo in doubt) [Compound 229] |  |  | +++ (+++ is >60%) | EC50 (Table 8): < 1000 nM |
| Cc1cccc(C)c1-c1cc2nc(n1)NS(=O)(=O)c1cccc(c1)C(=O)N[C@@H]1Cc3ccccc3[C@@H]1O2 (stereo in doubt) [Compound 246] |  |  | +++ (+++ is >60%) | EC50 (Table 8): < 1000 nM |
| Cc1ccccc1[C@H]1CNC(=O)c2cccc(c2)S(=O)(=O)Nc2nc(cc(-c3c(C)cccc3C)n2)O1 (stereo in doubt) [Compound 277] |  |  | + (+ is <30%) |  |
| Cc1cccc(C)c1-c1cc2nc(n1)NS(=O)(=O)c1cccc(c1)C(=O)N[C@H](CC1(C(F)(F)F)CC1)CO2 (stereo in doubt) [Compound 289] |  |  |  | EC50 (Table 8): 1000 to 3000 nM |
| CCC(C)(C)C(=O)N1CC[C@H]2NC(=O)c3cccc(c3)S(=O)(=O)Nc3nc(cc(-c4c(C)cccc4C)n3)OC2C1 (stereo in doubt) [Compound 371] | ++ (++ is 30-60%) | 3000 to 30000 |  |  |
| Cc1cccc(C)c1-c1cc2nc(n1)NS(=O)(=O)c1cccc(c1)C(=O)NC1CCCC[C@@H]1O2 (stereo in doubt) [Compound 485] |  |  |  | EC50 (Enteroid Assay A): 1000 to 3000 nM |
| Cc1cccc(C)c1-c1cc2nc(n1)NS(=O)(=O)c1cccc(c1)C(=O)N[C@@H]1CCCCC1O2 (stereo in doubt) [Compound 487] |  |  |  | Ent. A Max Activity (Enteroid Assay A): +++ (+++ is >600%); EC50 (Enteroid Assay A): < 1000 nM |
| Cc1cccc(C)c1-c1cc2nc(n1)NS(=O)(=O)c1cccc(c1)C(=O)NCC(c1ccc(C3CCC3)cc1)O2 (stereo not drawn) [Compound 12, 10-(4-Cyclobutylphenyl)-6-(2,6-dimethylphenyl)-2,2-dioxo-9-oxa-2λ^6-thia-3,5,12,19-tetrazatricyclo[12.3.1.14,8]nonadeca-1(18),4(19),5,7,14,16-hexaen-13-one] | +++ (+++ is >60%) | < 1000 |  |  |
| Cc1cccc(C)c1-c1cc2nc(n1)NS(=O)(=O)c1cccc(c1)C(=O)NCC(c1ccc([Si](C)(C)C)cc1)O2 (stereo not drawn) [Compound 15, 6-(2,6-Dimethylphenyl)-2,2-dioxo-10-(4-trimethylsilylphenyl)-9-oxa-2λ^6-thia-3,5,12,19-tetrazatricyclo[12.3.1.14,8]nonadeca-1(18),4(19),5,7,14,16-hexaen-13-one] |  | < 1000 |  |  |
| Cc1cccc(C)c1-c1cc2nc(n1)NS(=O)(=O)c1cccc(c1)C(=O)NCC(c1ccc(P(C)(C)=O)cc1)O2 (stereo not drawn) [Compound 21, 6-(2,6-Dimethylphenyl)-10-(4-dimethylphosphorylphenyl)-2,2-dioxo-9-oxa-2λ^6-thia-3,5,12,19-tetrazatricyclo[12.3.1.14,8]nonadeca-1(18),4(19),5,7,14,16-hexaen-13-one] |  |  | + (+ is <30%) |  |
| Cc1cccc(C)c1-c1cc2nc(n1)NS(=O)(=O)c1cccc(c1)C(=O)NCC(c1ccc(C(F)(F)C(F)(F)F)cc1)O2 (stereo not drawn) [Compound 22, 6-(2,6-Dimethylphenyl)-2,2-dioxo-10-[4-(1,1,2,2,2-pentafluoroethyl)phenyl]-9-oxa-2λ^6-thia-3,5,12,19-tetrazatricyclo[12.3.1.14,8]nonadeca-1(18),4(19),5,7,14,16-hexaen-13-one] | +++ (+++ is >60%) | < 1000 |  |  |
| Cc1cccc(C)c1-c1cc2nc(n1)NS(=O)(=O)c1cccc(c1)C(=O)NCC(c1ccc(/C=C/C(C)(C)C)cc1)O2 (stereo not drawn) [Compound 23, 10-[4-[(E)-3,3-Dimethylbut-1-enyl]phenyl]-6-(2,6-dimethylphenyl)-2,2-dioxo-9-oxa-2λ^6-thia-3,5,12,19-tetrazatricyclo[12.3.1.14,8]nonadeca-1(18),4(19),5,7,14,16-hexaen-13-one] | +++ (+++ is >60%) | < 1000 |  |  |

Further lines, with some results ahead:

| Ent. A Max Activity (Table 9) | EC50 (Table 9) [nM] | Ent. A Max Activity (Table 8) | Structure (SMILES) | also measured |
| --- | --- | --- | --- | --- |
| ++ (++ is 30-60%) | 3000 to 30000 |  | Cc1cccc(C)c1-c1cc2nc(n1)NS(=O)(=O)c1cccc(c1)C(=O)N[C@@H]1CCN(C(=O)CC(C)(C)C)C[C@@H]1O2 (stereo in doubt) [Compound 380] |  |
| +++ (+++ is >60%) | < 1000 |  | Cc1cccc(C)c1-c1cc2nc(n1)NS(=O)(=O)c1cccc(c1)C(=O)N[C@@H]1CCN(Cc3ccccc3)C[C@H]1O2 (stereo in doubt) [Compound 382] |  |
| + (+ is <30%) | 3000 to 30000 |  | Cc1cccc(C)c1-c1cc2nc(n1)NS(=O)(=O)c1cccc(c1)C(=O)N[C@@H]1CCN(C3CC4(CCCC4)C3)C[C@H]1O2 (stereo in doubt) [Compound 385] |  |
|  |  | +++ (+++ is >60%) | Cc1cccc(C)c1-c1cc2nc(n1)NS(=O)(=O)c1cccc(c1)C(=O)NC[C@@H](c1ccc(C(C)(F)F)cc1)O2 (stereo in doubt) [Compound 399] | EC50 (Table 8): < 1000 nM |
|  |  | + (+ is <30%) | Cc1cccc(C)c1-c1cc2nc(n1)NS(=O)(=O)c1cccc(c1)C(=O)NC[C@@H](c1ccc(C(C)(F)F)cc1)O2 (stereo in doubt) [Compound 400] | EC50 (Table 8): 1000 to 3000 nM |
|  |  | + (+ is <30%) | Cc1cccc(C)c1-c1cc2nc(n1)NS(=O)(=O)c1cccc(c1)C(=O)NC[C@H](c1ccc(C(F)(F)F)cc1)O2 (stereo in doubt) [Compound 402] | EC50 (Table 8): 3000 to 30000 nM |
|  |  | + (+ is <30%) | Cc1cccc(C)c1-c1cc2nc(n1)NS(=O)(=O)c1cccc(c1)C(=O)NC[C@@H](CN1CCCCC1)O2 (stereo in doubt) [Compound 409] |  |
